Tests used:
[1] = system: Drosophila flies (gmr-GAL4>UAS-i(CTG)480; CTG60 control); assay: Rough eye phenotype in DM1 Drosophila model; type: in vivo; details: for eye structure of control flies: 400 μM, CTG60 Drosophila flies
Procedure: FIG. 4A-C. Efficacy of 1a and 2a in DM1 Drosophilia fly mode. (a) Improvement in adult rough eye phenotype. Each experiment was conducted in triplicate. (b) Effect of ligands on the control Drosophilia larvae (24B−GAL4>UAS−(CTG)60). (c) Dose-dependent effect of ligands on the DM1 larvae (24B−GAL4>UAS−i(CTG)480). Each experiment was conducted in triplicate, 10 individual larvae for each trial. Error bars represent standard deviation, two tail t-test *P<0.05, **P<0.01, ***P<0.001.
Drosophila lines were cultured in standard cornmeal medium supplemented with dry yeasts. Fly lines bearing UAS-(CTG)60 and UAS-(CTG)480 were kind gifts of Prof. Rubén Artero Allepuz (Universitate de València, Estudi General, Spain). The gmr-GAL4 and […] lines were used to drive UAS transgene expression in eye and muscles respectively. Ligands 1a and 2a were dissolved in ddH2O and mixed with fly food. Genetic crosses were set up in drug-containing fly food at 21.5° C. for external eye assay, and at 25° C. for larval crawling assay.

GFP-MBNL-rCUG^exp foci = assay: Nuclear foci disruption, FISH/confocal with GFP-MBNL1 in DM1 model HeLa cells; type: cell-based
Procedure: (§1) FIG. 2A-C. (a) Representative confocal microscope images showing the GFP-MBNL-rCUG^exp foci disruption by compounds 1a and 2a. (b) Percent of foci area per cell after treatment of ligands for 48 h. The sequestration and dispersion of endogenous MBNL under the treatment of ligand are quantitatively measured. Error bars represent standard errors of mean from at least four independent experiments, two-tail t-test *P<0.005. Note: This was a head-to-head comparison between compounds 1a and 2a. […] The difference is attributed to variability in cells and conditions. (c) Cytotoxicity profile of compound 2a.
To evaluate the ability of dimer 2a to disrupt the […] in DM1 model cells, a standard fluorescence in situ hybridization experiment using exogenous MBNL was performed (FIG. 2a) (see Jahromi et al., ACS Chem. Biol. 2013, 8, 1037-1043). Here, GFP-MBNL1 was employed because of its intense signal and ability to easily monitor the location of the MBNL1 in live cells. Thus, normal HeLa cells were transfected with a plasmid containing GFP-MBNL1. To generate DM1 model cells, these HeLa cells were also transfected with a DMPK plasmid containing (CTG)960. […] The presence of MBNL1 was indicated as a green color from GFP signal for GFP-MBNL1 (Column 2), whereas (CUG)960 was detected by a complementary sequence (CAG)10 conjugated with a Cy3 dye and represented by a red color (Column 3). […]

[2] = system: MBNL1-rCUG^exp nuclear foci; details: cited from earlier work
[3] = earlier work; cited from earlier work
[4] = system: MBNL1-rCUG^exp nuclear foci; assay: Nuclear foci quantification with endogenous MBNL1 (immunofluorescence) in DM1 model cells; type: cell-based; details: 48 h
Procedure: as §1
In addition, a parallel experiment using endogenous MBNL1 in place of GFP-MBNL1 was conducted to quantify foci reduction in a model that more closely resembles DM1 patient cells. The endogenous MBNL1 was detected by an immunofluorescence technique (Alexa Fluor® 488 dye-labeled antibody) (Wong et al., J. Am. Chem. Soc. 2014, 136, 6355-6361). […] Incubation of 2a at 10 μM decreased the foci area to ca. 36%, but a similar level was also observed for the 100 μM treatment. It is encouraging that dimeric ligand 2a is as active at 1 μM as monomeric ligand 1a is at 100 μM. However, the lack of an obvious dose dependence and failure to fully dissolved nuclear foci at 100 μM may indicate a cellular penetration issue for 2a. Further study is underway.
(§2) ITC, EMSA, confocal microscopy, IR splicing, and the reversal of rough-eye phenotype assays were conducted as previously described (Wong et al., J. Am. Chem. Soc. 2014, 136, 6355-6361). The cytotoxicity of 2a was accessed using a published protocol (Vichai et al., Sulforhodamine B colorimetric assay for cytotoxicity screening, Nat. Protoc. 2006, 1, 1112-1116).

HeLa cells = assay: SRB cytotoxicity assay; type: cell-based
Procedure: This finding indicates an advantage of the bisamidinium-based ligands over the acridine-containing ligands.
as §2

[5] = system: insulin receptor (IR) pre-mRNA splicing; assay: Correction of IR alternative splicing in DM1 cell model (RT-PCR); type: cell-based; details: 1 μM
Source text: FIG. 3A-B. (a) Schematic representation of IR alternative splicing. (b) Correction of IR splicing by compounds 2a and 1a as determined by conventional RT-PCR. Error bars represent standard deviation for three independent experiments, two-tail t-test *P<0.01,**P<0.005.
Because 2a is capable of inhibiting MBNL1-rCUG^exp both in vitro and in cells, we evaluated its ability to correct the splicing defects in the DM1 cell model. We chose to examine the IR mRNA mis-splicing, because among several pre-mRNA splicing defects associated with the depletion of MBNL1 protein, the reversal of IR splicing requires the largest amount of free MBNL1 and is therefore the more challenging defect. During the alternative splicing of IR, two products were generated: isoforms IR-A and IR-B with the exclusion and inclusion of exon 11, respectively (FIG. 3a). In normal skeletal muscle, IR-B is the dominant isoform, whereas IR-A is more abundant in DM1 skeletal muscle. […] In particular, compound 2a at 1 μM increased the abundance of isoform B to 49% (ca. 80% correction).
ITC, EMSA, confocal microscopy, IR splicing, and the reversal of rough-eye phenotype assays were conducted as previously described (Wong et al., J. Am. Chem. Soc. 2014, 136, 6355-6361). […]

| Compound | eye structure of control flies [1] | foci dispersion (GFP-MBNL1) (GFP-MBNL-rCUG^exp foci; 100 μM) | reduction of foci to (previous study) ([2]; 100 μM, previous study) [%] | MBNL1-rCUG^exp nuclear foci in DM1 model cells (earlier work) ([2]; earlier work) | cytotoxicity [3] | nuclear foci remaining / foci area ([4]; 100 μM) | rough eye phenotype ([1]; 50 μM in fly food, gmr-GAL4>UAS-i(CTG)480 flies) | HeLa cell death (HeLa cells; 100 μM, 96 h) | cellular toxicity (HeLa cells; lower concentrations (below 100 μM)) | foci dispersion (GFP-MBNL1) (GFP-MBNL-rCUG^exp foci; 1, 10, and 100 μM) | correction of IR splicing ([5]; DM1 cell model) | abundance of IR isoform B ([5]; DM1 cell model (normal ca. 53%, DM1 34%)) [%] | nuclear foci remained after treatment ([4]; 1 μM) | foci area after treatment ([4]; 10 μM) |
| --- | --- | --- | --- | --- | --- | --- | --- | --- | --- | --- | --- | --- | --- | --- |
| N=C(NCCCCNc1nc(N)nc(N)n1)c1ccc(C(=N)NCCCCNc2nc(N)nc(N)n2)cc1 [Compound 1a] | did not change the fly's eye structure | foci dispersion was observed | 32 | dissolved foci | low cytotoxicity | ca. 90% | – | – | – | – | – | – | – | – |
| N=C(NCCCCNc1nc(N)nc(N)n1)c1ccc(C(=N)NCCCCNc2nc(N)nc(NCCCn3cc(CNc4nc(N)nc(NCCCCNC(=N)c5ccc(C(=N)NCCCCNc6nc(N)nc(N)n6)cc5)n4)nn3)n2)cc1 [Compound 2a] | did not change the fly's eye structure | – | – | – | – | – | partial reversal of rough eye phenotypes | ca. 10% | negligible cellular toxicity | foci dispersion was observed | ca. 80% | 49 | approximately 72% | ca. 36% |

From US10266520B2, “Bisamidinium-based inhibitors for the treatment of myotonic dystrophy” (The Board of Trustees of the University of Illinois, priority 2014, dated 2019)
